Assays:
[1] = target: T1, Recombinant ROCK2 (amino acids 5-554) (Homo sapiens, UniProt O75116); experiment: ROCK inhibition assay, LANCE Ultra TR-FRET kinase assay (ROCK2); assay type: biochemical; conditions: 4 μM ATP, 50 nM ULight-CREBtide substrate
T1 construct: ROCK2 (amino acids 5-554); by word order, ROCK2 from SignalChem
Outline: (§1)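 Reaction buffer 50 mM HEPES pH 7.5, 10 mM MgCl2, 1 mM EGTA, 2 mM DTT; kinase, ULight-CREBtide (50 nM) and ATP (ROCK1 1 μM, ROCK2 4 μM) react 1 h at room temperature. Phospho-Ser133 detected by europium antibody after 10 mM EDTA stop, TR-FRET ex 320 nm; IC50 calculated.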

[2] = target: T2, Recombinant ROCK1 (amino acids 1-477) (Homo sapiens, UniProt Q13464); experiment: ROCK inhibition assay, LANCE Ultra TR-FRET kinase assay (ROCK1); assay type: biochemical; conditions: 1 μM ATP, 50 nM ULight-CREBtide substrate
T2 construct: Recombinant ROCK1 (amino acids 1-477); by word order, ROCK1 from Carna Biosciences
T2 sequence (Q13464 1-477): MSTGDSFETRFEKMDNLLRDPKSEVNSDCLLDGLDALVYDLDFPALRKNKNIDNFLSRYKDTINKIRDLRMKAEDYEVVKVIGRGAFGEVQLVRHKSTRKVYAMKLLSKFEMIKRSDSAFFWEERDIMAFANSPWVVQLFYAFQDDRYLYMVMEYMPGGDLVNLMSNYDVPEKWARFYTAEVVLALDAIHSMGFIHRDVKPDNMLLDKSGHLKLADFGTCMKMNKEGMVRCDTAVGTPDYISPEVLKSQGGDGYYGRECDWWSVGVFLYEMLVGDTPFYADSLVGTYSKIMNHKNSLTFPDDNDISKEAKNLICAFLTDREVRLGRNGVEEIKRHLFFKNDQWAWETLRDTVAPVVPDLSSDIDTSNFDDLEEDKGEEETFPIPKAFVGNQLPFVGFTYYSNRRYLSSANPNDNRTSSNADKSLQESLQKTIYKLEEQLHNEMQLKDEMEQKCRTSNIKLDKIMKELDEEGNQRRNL
Outline: as §1

[3] = tested on: ROCK1/2 in A7r5 cells (pMLC2 levels); experiment: Inhibition of ROCK1/2 in A7r5 cells, cell-based ELISA of phospho-myosin light chain (pMLC2, Thr18/Ser19); conditions: Rattus norvegicus, 1.5 h, treated with test compounds for 90 minutes, read-out: pMLC2 (cellular EC50)
Procedure: Inhibition of ROCK1/2 in A7r5 cells was measured through cell-based ELISA assay. Rat aortic smooth muscle cell line A7r5 cells were maintained and treated in DMEM medium with 10% fetal bovine serum. Cells were seeded with 5,000 cells/well in 96 well plates for 24 hours and subsequently treated with test compounds for 90 minutes. Cells were then fixed and processed according to the In-Cell ELISA Colrimetric Detection Kit manual (Thermo Scientific). Cellular phospho-myosin light chain (pMLC2, Thr18/Ser19) levels were determined after treatment with DMSO control or a test compound using the In-Cell ELISA kit.
The resulting data was applied to the following formula ‘[1-(compound/DMSO)]×100%’ to calculate the percent inhibition rate. pMLC2 data obtained from 9 points 3-fold serial dilution of compounds were applied to the nonlinear regression curve fit function of the GraphPad Prism software to calculate the cellular EC50 values.

T1 sequence (O75116 5-554): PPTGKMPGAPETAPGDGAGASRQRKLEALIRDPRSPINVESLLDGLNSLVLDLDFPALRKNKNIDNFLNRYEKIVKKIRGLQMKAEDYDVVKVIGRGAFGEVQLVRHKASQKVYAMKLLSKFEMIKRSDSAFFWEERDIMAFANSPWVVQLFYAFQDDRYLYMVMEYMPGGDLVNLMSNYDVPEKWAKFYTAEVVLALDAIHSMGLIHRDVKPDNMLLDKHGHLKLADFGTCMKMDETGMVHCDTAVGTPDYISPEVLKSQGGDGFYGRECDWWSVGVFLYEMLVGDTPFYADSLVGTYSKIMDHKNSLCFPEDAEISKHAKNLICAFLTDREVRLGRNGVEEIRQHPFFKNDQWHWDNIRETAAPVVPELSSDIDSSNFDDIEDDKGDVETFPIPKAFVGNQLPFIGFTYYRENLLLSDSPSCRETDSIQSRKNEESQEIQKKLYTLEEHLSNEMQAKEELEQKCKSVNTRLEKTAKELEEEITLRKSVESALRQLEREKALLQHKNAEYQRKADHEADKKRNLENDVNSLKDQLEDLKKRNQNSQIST

Compound | IC50 [1] [µM] | IC50 [2] [µM] | EC50 [3] [µM]
Cn1ccc(NC(=O)c2cccc(Cn3ccc4cc(-c5ccnc(N)c5)ccc4c3=O)c2)n1 [Compound 200] | < 0.01 | 0.011 to 0.1 | < 0.1
CNC(=O)c1cccc(Cn2ccc3cc(-c4cn[nH]c4C(F)(F)F)ncc3c2=O)c1 [Compound 233] | < 0.01 | 0.011 to 0.1 | 0.101 to 0.5
CNC(=O)c1cccc(Cn2ccc3cc(-c4conc4C)ccc3c2=O)c1 [Compound 277] | < 0.01 | 0.101 to 0.5 | 0.501 to 1
CNC(=O)c1cccc(Cn2ccc3cc(-c4cn[nH]c4C(F)(F)F)ccc3c2=O)c1 [Compound 280] | < 0.01 | 0.011 to 0.1 | 0.501 to 1
CNC(=O)c1cc(F)cc(Cn2ccc3cc(-c4cn[nH]c4C(F)(F)F)ccc3c2=O)c1 [Compound 281] | < 0.01 | 0.011 to 0.1 | 0.101 to 0.5
CNC(=O)c1cc(F)cc(Cn2ccc3cc(-c4conc4C)ccc3c2=O)c1 [Compound 315] | < 0.01 | 0.011 to 0.1 | 0.501 to 1
CNC(=O)c1cccc(Cn2ccc3cc(-c4ccnn4C)ccc3c2=O)c1 [Compound 320] | 0.01 to 0.1 | 0.101 to 0.5 | > 1
CNC(=O)c1cc(F)cc(Cn2ccc3cc(-c4ccnn4C)ccc3c2=O)c1 [Compound 323] | 0.01 to 0.1 | 0.101 to 0.5 | 0.101 to 0.5
CNC(=O)c1cccc(Cn2ccc3cc(-c4ccnc(N)c4)ccc3c2=O)c1 [Compound 326] | < 0.01 | 0.011 to 0.1 | 0.101 to 0.5
Nc1cc(-c2ccc3c(=O)n(Cc4cccc(C(=O)NCCc5ccccn5)c4)cnc3c2)ccn1 [Compound 437] | < 0.01 | 0.011 to 0.1 | 0.101 to 0.5
CNC(=O)c1cccc([C@@H](C)n2cnc3cc(-c4cn[nH]c4C(F)(F)F)ccc3c2=O)c1 [Compound 440, (R)—N-methyl-3-(1-(4-oxo-7-(5-(trifluoromethyl)-1H-pyrazol-4-yl)quinazolin-3(4H)-yl)ethyl)benzamide] | < 0.01 | 0.011 to 0.1 | 0.101 to 0.5
CNC(=O)c1cccc([C@@H](C)n2cnc3cc(-c4cn[nH]c4Cl)ccc3c2=O)c1 [Compound 466] | < 0.01 | 0.011 to 0.1 | < 0.1
CNC(=O)c1cccc([C@@H](C)n2cnc3cc(-c4conc4C)ccc3c2=O)c1 [Compound 469] | < 0.01 | 0.011 to 0.1 | < 0.1

Reference: patent US12064426B2, “Selective inhibitors of ROCK1 and ROCK2 protein kinases and uses thereof” (GENOSCO Inc., priority 2021, dated 2024)
